# Source: patent US20050009894A1 (Aventis Pharma S.A., priority 2001, published 2005)
# Molecular target: T1, human KDR enzyme (Homo sapiens, UniProt P35968)
# T1 construct: The cytoplasmic domain of human KDR enzyme is cloned in the form of a GST fusion; GST; made in house; host or cells: SF21 insect cells (baculovirus, pFastBac)
# Test: Phosphorylation of the substrate PLCγ by the enzyme KDR in vitro (flashplate technique)
# Type: biochemical
# Conditions: Table VII, degrees of activity by IC50 range; read-out: Activity
# Summary of the method: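 GST-fused human KDR cytoplasmic domain (Sf21 baculovirus, ~60% pure; 100 ng/well) phosphorylating 2 μg GST-PLCγ SH2-SH3 fragment in MOPS pH 7.2 with MgCl2/MnCl2, 1 h at 37° C. Started with γ33P-ATP plus cold ATP (2 μM in start solution); flashplate radioactivity. % inhibition vs no-compound control; IC50 from dose-response curves.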
# T1 sequence (P35968 786-1356 limits assumed): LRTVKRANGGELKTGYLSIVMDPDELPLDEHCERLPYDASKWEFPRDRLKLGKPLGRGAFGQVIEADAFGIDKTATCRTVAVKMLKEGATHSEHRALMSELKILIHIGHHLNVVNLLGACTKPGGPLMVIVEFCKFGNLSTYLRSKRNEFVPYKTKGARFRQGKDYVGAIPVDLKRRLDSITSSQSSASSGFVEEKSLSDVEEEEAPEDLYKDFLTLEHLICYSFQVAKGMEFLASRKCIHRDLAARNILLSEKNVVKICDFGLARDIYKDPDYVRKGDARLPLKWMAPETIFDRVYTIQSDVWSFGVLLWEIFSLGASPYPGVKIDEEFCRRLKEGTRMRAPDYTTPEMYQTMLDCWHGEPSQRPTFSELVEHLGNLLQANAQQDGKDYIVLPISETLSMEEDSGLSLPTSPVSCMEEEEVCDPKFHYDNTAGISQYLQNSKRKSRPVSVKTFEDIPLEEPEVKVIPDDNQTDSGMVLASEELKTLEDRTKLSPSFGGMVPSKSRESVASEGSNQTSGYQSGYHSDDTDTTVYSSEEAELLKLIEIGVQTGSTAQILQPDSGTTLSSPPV
row,Compound,IC50 [µM]
1,"O=C(NCc1c(F)cc(Cl)cc1Cl)c1ccc2[nH]c(-c3n[nH]c4ccccc34)nc2c1 [Example 177, 2-(1H-Indazol-3-yl)-1H-benzoimidazole-5-carboxylic acid (2,4-dichloro-6-fluoro-benzyl)amide]",< 0.3
2,"O=C(NCc1ccc(Cl)c(F)c1)c1ccc2[nH]c(-c3n[nH]c4ccccc34)nc2c1 [Example 178, 2-(1H-Indazol-3-yl)-1H-benzoimidazole-5-carboxylic acid (3-fluoro-4-chloro-benzyl)amide]",< 0.3
3,"Cc1cc(Cl)cc(F)c1CNC(=O)c1ccc2[nH]c(-c3n[nH]c4ccccc34)nc2c1 [Example 179, 2-(1H-Indazol-3-yl)-1H-benzoimidazole-5-carboxylic acid (2-fluoro-4-chloro-6-methyl-benzyl)amide]",< 0.3
4,"COc1ccc(CNC(=O)c2ccc3[nH]c(-c4n[nH]c5ccccc45)nc3c2)cn1 [Example 180, 2-(1H-Indazol-3-yl)-1H-benzoimidazole-5-carboxylic acid (6-methoxy-pyridin-3-ylmethyl)-amide]",< 0.3
5,"C(=C\c1ccccc1)/COc1cc(-c2nc3ccccc3[nH]2)[nH]n1 [Example 182, 2-[5-(3-Phenyl-allyloxy)-2H-pyrazol-3-yl]-1H-benzoimidazole]",0.3 to 3
6,"C=C(C)COc1cc(-c2nc3ccccc3[nH]2)[nH]n1 [Example 183, 2-[5-(2-Methyl-allyloxy)-2H-pyrazol-3-yl]-1H-benzoimidazole]",> 3
7,"CC(C)=CCC/C(C)=C/COc1cc(-c2nc3ccccc3[nH]2)[nH]n1 [Example 184, 2-[5-(3,7-Dimethyl-octa-2,6-dienyloxy)-2H-pyrazol-3-yl]-1H-benzoimidazole]",0.3 to 3
8,"Fc1c(F)c(F)c(COc2cc(-c3nc4ccccc4[nH]3)[nH]n2)c(F)c1F [Example 189, 2-(5-Pentafluoro-phenylmethoxy-2H-pyrazol-3-yl)-1H-benzoimidazole]",> 3
9,"O=S(=O)(Cc1ccccc1COc1cc(-c2nc3ccccc3[nH]2)[nH]n1)c1ccccc1 [Example 191, 2-[5-(2-Benzenesulfonylmethylbenzyloxy)-2H-pyrazol-3-yl]-1H-benzoimidazole]",0.3 to 3
10,"c1ccc2[nH]c(-c3cc(OCCN4CCOCC4)n[nH]3)nc2c1 [Example 195, 2-[5-(2-Morpholin-4-yl-ethoxy)-2H-pyrazol-3-yl]-1H-benzoimidazole]",> 3
11,"c1ccc2[nH]c(-c3cc(OCCN4CCCCC4)n[nH]3)nc2c1 [Example 196, 2-[5-(2-Piperidin-1-yl-ethoxy)-2H-pyrazol-3-yl]-1H-benzoimidazole]",> 3
12,"O=C(COc1cc(-c2nc3ccccc3[nH]2)[nH]n1)C(F)(F)C(F)(F)F [Example 199, 1-[5-(1H-Benzoimidazol-2-yl)-1H-pyrazol-3-yloxy]-3,3,4,4,4-pentafluoro-butan-2-one]",> 3
13,"O=C(COc1cc(-c2nc3ccccc3[nH]2)[nH]n1)c1ccc(-c2ccccc2)cc1 [Example 200, 2-[5-(1H-Benzoimidazol-2-yl)-1H-pyrazol-3-yloxy]-1-biphenyl-4-yl-ethanone]",> 3
14,"CCC(=O)COc1cc(-c2nc3ccccc3[nH]2)[nH]n1 [Example 201, 1-[5-(1H-Benzoimidazol-2-yl)-1H-pyrazol-3-yloxy]-butan-2-one]",> 3
15,"CN(C)c1ccc(C(=O)COc2cc(-c3nc4ccccc4[nH]3)[nH]n2)cc1 [Example 202, 2-[5-(1H-Benzoimidazol-2-yl)-1H-pyrazol-3-yloxy]-1-(4-dimethylamino-phenyl)-ethanone]",> 3
16,"O=C(COc1cc(-c2nc3ccccc3[nH]2)[nH]n1)c1cc(-c2ccccc2)no1 [Example 203, 2-[5-(1H-Benzoimidazol-2-yl)-1H-pyrazol-3-yloxy]-1-(3-phenyl-isoxazol-5-yl)-ethanone]",> 3
17,"O=C(COc1cc(-c2nc3ccccc3[nH]2)[nH]n1)Nc1ccccc1 [Example 204, 2-[5-(1H-Benzoimidazol-2-yl)-1H-pyrazol-3-yloxy]-N-phenyl-acetamide]",> 3
18,"CC(C)(C)C(=O)COc1cc(-c2nc3ccccc3[nH]2)[nH]n1 [Example 205, 1-[5-(1H-Benzoimidazol-2-yl)-1H-pyrazol-3-yloxy]-3,3-dimethyl-butan-2-one]",> 3
19,"O=C(COc1cc(-c2nc3ccccc3[nH]2)[nH]n1)C12C[C@H]3C[C@@H](C1)C[C@@H](C2)C3 [Example 206, 1-Adamantan-1-vl-2-[5-(1H-benzoimidazol-2-yl)-1H-pyrazol-3-yloxy]-ethanone]",> 3
20,"O=C(COc1cc(-c2nc3ccccc3[nH]2)[nH]n1)c1ccc2ccccc2c1 [Example 207, 2-[5-(1H-Benzoimidazol-2-yl)-1H-pyrazol-3-yloxy]-1-naphthalen-2-yl-ethanone]",> 3
21,"N#Cc1ccc(C(=O)COc2cc(-c3nc4ccccc4[nH]3)[nH]n2)cc1 [Example 208, 4-{2-[5-(1H-Benzoimi-dazol-2-Yl)-1H-pyrazol-3-yloxy)acetyl}-benzonitrile]",> 3

# Next, values leading:
row,IC50 [µM],Compound
1,0.3 to 3,"c1ccc(COc2cc(-c3nc4ccccc4[nH]3)[nH]n2)cc1 [Example 181, 2-[5-(benzyloxy)-2H-pyrazol-3-yl]-1H-benzoimidazole]"
2,0.3 to 3,"Brc1cccc(COc2cc(-c3nc4ccccc4[nH]3)[nH]n2)c1 [Example 185, 2-[5-(3-Bromo-benzyloxy)-2H-pyrazol-3-yl]-1H-benzoimidazole]"
3,> 3,"N#Cc1cccc(COc2cc(-c3nc4ccccc4[nH]3)[nH]n2)c1 [Example 186, 3-[5-(1H-Benzoimidazol-2-yl)-1H-pyrazol-3-yloxymethyl]-benzonitrile]"
4,> 3,"FC(F)(F)c1ccc(COc2cc(-c3nc4ccccc4[nH]3)[nH]n2)cc1 [Example 187, 2-[5-(4-Trifluoromethyl-benzyloxy)-2H-pyrazol-3-yl]-1H-benzoimidazole]"
5,0.3 to 3,"Clc1ccc(COc2cc(-c3nc4ccccc4[nH]3)[nH]n2)cc1Cl [Example 188, 2-[5-(3,4-Dichloro-benzyloxy)-2H-pyrazol-3-yl]-1H-benzoimidazole]"
6,> 3,"CC(C)(C)c1ccc(COc2cc(-c3nc4ccccc4[nH]3)[nH]n2)cc1 [Example 190, 2-[5-(4-tert-Butyl-benzyloxy)-2H-pyrazol-3-yl]-1H-benzoimidazole]"
7,> 3,"N#Cc1ccc(COc2cc(-c3nc4ccccc4[nH]3)[nH]n2)cc1 [Example 192, 4-[5-(1H-Benzoimidazol-2-yl)-1H-pyrazol-3-yloxymethyl]-benzonitrile]"
8,0.3 to 3,"c1ccc(-c2ccc(COc3cc(-c4nc5ccccc5[nH]4)[nH]n3)cc2)cc1 [Example 193, 2-[5-(Biphenyl-4-ylmethoxy)-2H-pyrazol-3-yl]-1H-benzoimidazole]"
9,> 3,"O=S(=O)(Oc1cc(-c2nc3ccccc3[nH]2)[nH]n1)c1cccc(Cl)c1Cl [Example 194, 2,3-Dichloro-benzenesulfonic acid 5-(1H-benzoimidazol-2-yl)-1H-pyrazol-3-yl ester]"
10,0.3 to 3,"COc1cccc(COc2cc(-c3nc4ccccc4[nH]3)[nH]n2)c1 [Example 197, 2-[5-(3-Methoxy-benzyloxy)-2H-pyrazol-3-yl]-1H-benzoimidazole]"
11,> 3,"Cc1ccc(C(=O)COc2cc(-c3nc4ccccc4[nH]3)[nH]n2)cc1 [Example 198, 2-[5-(1H-Benzoimidazol-2-yl)-1H-pyrazol-3-yloxy]-1-p-tolyl-ethanone]"
